For 14 molecules, TGI and GI50 results are on record in PubChem BioAssay (NCI).

Some test systems named below: LOX IMVI melanoma; MDA-MB-435; ACHN renal; CCRF-CEM leukemia; SW-620 colon; DU-145 prostate; HL-60(TB) leukemia; A549 NSCLC; HOP-62 NSCLC; MDA-MB-231 breast.
Test in all cases: inhibition of tumour cell growth, NCI panel, 48 h

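Results reflect a 48-hour exposure of cells in 96-well plates to compound at five concentrations. Abbreviation: GI50, concentration required for 50% inhibition of growth. TGI marks complete inhibition of growth.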 Some results are limits rather than exact numbers.

Take `COc1cc2c(c(OC)c1OC)-c1c(cc3c(c1OC)OCO3)CC(C)C(C)(O)C2OC(=O)c1ccccc1` (stereo not given): the TGI in the assay on LOX IMVI melanoma is over 100 µM; in the assay with MDA-MB-435, over 100 µM; with ACHN renal, over 100 µM; with CCRF-CEM leukemia it was 63.9 µM; in the assay on SW-620 colon, over 100 µM; in the assay on DU-145 prostate, over 100 µM. Further, the TGI is 48.7 µM in the assay with HL-60(TB) leukemia, over 100 µM in the assay on A549 NSCLC, over 100 µM in the assay on HOP-62 NSCLC and 57.8 µM with MDA-MB-231 breast.
Regarding `COc1ccc2c(c1)C(=O)c1c-2n(CCCN)c(=O)c2cc([N+](=O)[O-])ccc12`, the GI50 is under 0.01 µM with LOX IMVI melanoma; 3.3 µM in the assay with MDA-MB-435; under 0.01 µM with CCRF-CEM leukemia; under 0.01 µM in the assay on SW-620 colon; under 0.01 µM in the assay on DU-145 prostate; under 0.01 µM in the assay with HOP-62 NSCLC. Besides, the GI50 in the assay on MDA-MB-231 breast is 0.1 µM. Besides, the TGI in the assay with LOX IMVI melanoma is under 0.01 µM; in the assay with MDA-MB-435 it was 19.5 µM; in the assay on CCRF-CEM leukemia it was under 0.01 µM; in the assay on SW-620 colon, 0.146 µM; in the assay with DU-145 prostate it was 0.0193 µM; with HOP-62 NSCLC, 0.0234 µM. Besides, the TGI with MDA-MB-231 breast came out at 0.227 µM.
Consider `Cc1oc2c(c1C(=O)N1CC[C@@H](N)C1)C(=O)c1c(c(O)c3ccccc3c1O)C2=O`, for which the GI50 in the assay on LOX IMVI melanoma was 1.1 µM; with MDA-MB-435, 2.58 µM; with ACHN renal, 0.629 µM; in the assay on CCRF-CEM leukemia, 1.01 µM; in the assay with SW-620 colon it was 1.08 µM; in the assay on DU-145 prostate, 1.06 µM. The GI50 in the assay on HL-60(TB) leukemia is 1.17 µM; in the assay with HOP-62 NSCLC it was 0.51 µM; in the assay with MDA-MB-231 breast it was 2.26 µM. Moreover, the TGI with LOX IMVI melanoma stood at 3.96 µM; in the assay with MDA-MB-435, 10.1 µM; in the assay on ACHN renal it was 11.1 µM; in the assay with CCRF-CEM leukemia, 4.33 µM; in the assay with SW-620 colon it was 7.28 µM; with DU-145 prostate it was 15.5 µM. For the same molecule, the TGI was 4.31 µM in the assay with HL-60(TB) leukemia, 4.11 µM in the assay with HOP-62 NSCLC and 9.06 µM with MDA-MB-231 breast.
With `COc1cc(C2CC(=O)Nc3c2cc(Br)c2ccccc32)cc(Br)c1OC` (stereo not given), the GI50 is 1.65 µM in the assay on LOX IMVI melanoma; 0.247 µM in the assay on MDA-MB-435; 2.01 µM with CCRF-CEM leukemia; 0.53 µM with SW-620 colon; 6.38 µM in the assay on DU-145 prostate; 1.06 µM in the assay on HL-60(TB) leukemia. In addition, the GI50 with HOP-62 NSCLC is 1.45 µM; with MDA-MB-231 breast it was 2.66 µM. Also, the TGI is over 100 µM in the assay with LOX IMVI melanoma; 0.864 µM with MDA-MB-435; 21.5 µM in the assay with CCRF-CEM leukemia; over 100 µM in the assay on SW-620 colon; over 100 µM with DU-145 prostate; 3.98 µM in the assay on HL-60(TB) leukemia. Moreover, the results for the TGI in the assay with HOP-62 NSCLC and in the assay on MDA-MB-231 breast were 3.9 µM and 7.42 µM, respectively.
As to `COc1ccc2c(c1)C(=O)c1c-2c(N2CCNCC2)nc2ccccc12`, the GI50 in the assay on LOX IMVI melanoma is 1.79 µM; in the assay with MDA-MB-435, 4.93 µM; in the assay on ACHN renal it was 2.78 µM; with CCRF-CEM leukemia, 1.36 µM; in the assay with SW-620 colon, 1.32 µM; in the assay on DU-145 prostate it was 1.89 µM. Also, the results for the GI50 with HL-60(TB) leukemia, in the assay with A549 NSCLC and in the assay with MDA-MB-231 breast were 1.8 µM, 3.3 µM and 3.21 µM, respectively. Also, the TGI in the assay with LOX IMVI melanoma is 3.5 µM; in the assay on MDA-MB-435 it was 17.9 µM; in the assay with ACHN renal, 8.24 µM; in the assay with CCRF-CEM leukemia, 2.94 µM; in the assay with SW-620 colon it was 2.6 µM; in the assay with DU-145 prostate, 4.73 µM. Besides, the TGI is 5.16 µM with HL-60(TB) leukemia, 15.8 µM with A549 NSCLC and 11.1 µM in the assay on MDA-MB-231 breast.
`Cc1cc(NC(=O)c2cnc(N3CCN(CCOCCOCCOCCOCCC(=O)N[C@H](C(=O)N4C[C@H](O)C[C@H]4C(=O)N[C@@H](C)c4ccc(-c5scnc5C)cc4)C(C)(C)C)CC3)cn2)c2ncccc2c1`: the GI50 in the assay with LOX IMVI melanoma is 1.84 µM; with MDA-MB-435, 2.25 µM; in the assay on ACHN renal it was 12 µM; in the assay with CCRF-CEM leukemia, 3.37 µM; in the assay with SW-620 colon, 2.38 µM; in the assay on DU-145 prostate, 6.16 µM. For the same molecule, the figures for the GI50 in the assay with HL-60(TB) leukemia, in the assay with A549 NSCLC and in the assay on MDA-MB-231 breast were 2.3 µM, 6.19 µM and 1.98 µM, respectively. Moreover, the TGI was 3.39 µM in the assay on LOX IMVI melanoma; 5.38 µM in the assay on MDA-MB-435; over 100 µM in the assay with ACHN renal; over 100 µM with CCRF-CEM leukemia; 5.65 µM in the assay on SW-620 colon; over 100 µM in the assay on DU-145 prostate. The figures for the TGI in the assay on HL-60(TB) leukemia, with A549 NSCLC and in the assay on MDA-MB-231 breast were 5.71 µM, over 100 µM and 3.98 µM, respectively.
Turning to `Cc1ccc(Sc2oc(-c3ccc(C)cc3)nc2[P+](c2ccccc2)(c2ccccc2)c2ccccc2)cc1`, the GI50 in the assay with LOX IMVI melanoma is 0.166 µM; with MDA-MB-435, 0.336 µM; in the assay with ACHN renal, 0.311 µM; in the assay on CCRF-CEM leukemia, 0.31 µM; in the assay on SW-620 colon, 0.338 µM; in the assay on DU-145 prostate, 0.416 µM. For the same molecule, the GI50 with HL-60(TB) leukemia was 0.23 µM; with A549 NSCLC, 0.305 µM; with MDA-MB-231 breast, 0.28 µM. Further, the TGI in the assay on LOX IMVI melanoma is 0.323 µM; with MDA-MB-435, 1.2 µM; with ACHN renal, 1.16 µM; in the assay on CCRF-CEM leukemia it was 1.64 µM; in the assay with SW-620 colon, 1.32 µM; in the assay on DU-145 prostate, 1.48 µM. In addition, the TGI with HL-60(TB) leukemia worked out at 0.566 µM; in the assay with A549 NSCLC, 1.24 µM; in the assay with MDA-MB-231 breast, 1.03 µM.
As to `Nc1cc2cccc[n+]2c2cccc(Cl)c12`, the GI50 is 25.8 µM in the assay with MDA-MB-435; 41.8 µM with ACHN renal; 12 µM in the assay with CCRF-CEM leukemia; 34.2 µM with SW-620 colon; 46.4 µM in the assay on DU-145 prostate; 47.4 µM in the assay with HL-60(TB) leukemia. Also, the GI50 in the assay with A549 NSCLC is 30.9 µM; with MDA-MB-231 breast, 17 µM. The TGI amounted to 72.2 µM in the assay with MDA-MB-435 and 94.4 µM in the assay with CCRF-CEM leukemia.
Consider `CC(=O)OC(C)C(OC(C)=O)C(OC(C)=O)C(/C=C/C1CC=CC(=O)O1)OC(C)=O` (stereo not given), for which the GI50 in the assay on LOX IMVI melanoma was 29.1 µM; in the assay on MDA-MB-435, 37.6 µM; in the assay with ACHN renal, 33.7 µM; in the assay with CCRF-CEM leukemia, 30.3 µM; with SW-620 colon it was 16.1 µM; in the assay on DU-145 prostate, 18.8 µM. Moreover, the GI50 with HL-60(TB) leukemia is 20.4 µM; with HOP-62 NSCLC, 37.8 µM; in the assay with MDA-MB-231 breast, 21.8 µM. Besides, the TGI was over 100 µM in the assay with LOX IMVI melanoma; over 100 µM in the assay on MDA-MB-435; over 100 µM in the assay on ACHN renal; over 100 µM with CCRF-CEM leukemia; 46.3 µM in the assay with SW-620 colon; 43.1 µM in the assay with DU-145 prostate. Besides, the figures for the TGI in the assay with HL-60(TB) leukemia, with HOP-62 NSCLC and in the assay with MDA-MB-231 breast were 43.3 µM, over 100 µM and 53.6 µM, respectively.
Take `O=C1c2ccccc2C(=O)N1C1(C(=O)NC2(C(=O)O)CCCC2)CCCC1`: the TGI with LOX IMVI melanoma, in the assay with MDA-MB-435, in the assay with ACHN renal, with CCRF-CEM leukemia, in the assay on SW-620 colon and with DU-145 prostate was over 100 µM in each case. Also, the TGI in the assay with A549 NSCLC, in the assay with HOP-62 NSCLC and in the assay with MDA-MB-231 breast was over 100 µM in each case.
As for `COc1cc2c(cc1-c1coc3cc(OCC=C(C)C)ccc3c1=O)OCO2`, the TGI with LOX IMVI melanoma is 93.9 µM; with MDA-MB-435, over 100 µM; in the assay on ACHN renal, over 100 µM; with SW-620 colon, over 100 µM; with DU-145 prostate, over 100 µM; with HL-60(TB) leukemia, 35.7 µM. Besides, the TGI with A549 NSCLC was over 100 µM; in the assay with HOP-62 NSCLC, 89.1 µM; in the assay with MDA-MB-231 breast, 65.6 µM.
For `O=C(Nc1ccccc1Cl)c1cccc(NC2=C(Cl)C(=O)N(Cc3ccccc3)C2=O)c1`, the GI50 in the assay on LOX IMVI melanoma is 7.96 µM; with MDA-MB-435, 3.05 µM; in the assay on ACHN renal, 60.5 µM; in the assay with SW-620 colon it was 26.1 µM; with DU-145 prostate, 28.5 µM; in the assay with HL-60(TB) leukemia, 1.4 µM. Besides, the GI50 is 49.3 µM in the assay with A549 NSCLC and 17.1 µM in the assay with MDA-MB-231 breast. The TGI is over 100 µM in the assay with LOX IMVI melanoma; 10.3 µM with MDA-MB-435; over 100 µM in the assay with ACHN renal; over 100 µM in the assay with SW-620 colon; over 100 µM with DU-145 prostate; 20.8 µM with HL-60(TB) leukemia. Also, the TGI in the assay with A549 NSCLC was over 100 µM; in the assay with MDA-MB-231 breast, 69.7 µM.
`COc1ccc2c(c1)/C(=C\c1c[nH]c3ccc(OC)cc13)C(=O)N2`: the GI50 with LOX IMVI melanoma is 3.25 µM; in the assay with MDA-MB-435, 0.877 µM; with ACHN renal, 2.93 µM; in the assay on CCRF-CEM leukemia it was 2.84 µM; in the assay on SW-620 colon, 2.77 µM; with DU-145 prostate it was 4.72 µM. For the same molecule, the values for the GI50 with HL-60(TB) leukemia, in the assay with HOP-62 NSCLC and with MDA-MB-231 breast were 2.97 µM, 2.72 µM and 1.97 µM, respectively. For the same molecule, the TGI with LOX IMVI melanoma stood at 13.6 µM; in the assay on MDA-MB-435, 5.17 µM; with ACHN renal, 12.4 µM; in the assay with CCRF-CEM leukemia, 9.33 µM; in the assay with SW-620 colon, 11 µM; in the assay with DU-145 prostate it was 16.4 µM. The TGI with HL-60(TB) leukemia was 6.07 µM; in the assay with HOP-62 NSCLC, 12.5 µM; in the assay on MDA-MB-231 breast it was 6.32 µM.
On to `CCSc1nc(N)c(C#N)c(-c2ccco2)c1C#N`, for which the GI50 was 17.1 µM in the assay with LOX IMVI melanoma; 25.2 µM in the assay with MDA-MB-435; 16.9 µM in the assay on ACHN renal; 42.2 µM in the assay with SW-620 colon; 42.6 µM with DU-145 prostate; 39.8 µM in the assay with HL-60(TB) leukemia. Further, the results for the GI50 in the assay on A549 NSCLC, with HOP-62 NSCLC and in the assay with MDA-MB-231 breast were 41.4 µM, 80.9 µM and over 100 µM, respectively. Further, the TGI in the assay on LOX IMVI melanoma was 37.1 µM; with MDA-MB-435, 66.1 µM; in the assay with ACHN renal, 69.2 µM; in the assay on SW-620 colon, over 100 µM; in the assay with DU-145 prostate, over 100 µM; in the assay on HL-60(TB) leukemia, over 100 µM. Besides, the TGI in the assay on A549 NSCLC, with HOP-62 NSCLC and in the assay on MDA-MB-231 breast was over 100 µM throughout.
